Measurements taken from the supplement of paper PMC5908809.

How the values were obtained:
[1] = test system: SNK-6 (IL-2 2.5 ng/mL); test: percent inhibition of viability; higher = more inhibition; conditions: 72 h
[2] = test system: KHYG-1 (IL-2 2.5 ng/mL); test: as above; conditions: 72 h
[3] = test system: normal primary NK cells, pool 3 (3 donors) (IL-2 2.5 ng/mL); test: as above; conditions: 72 h
[4] = test system: IMC-1 (IL-2 20 ng/mL); test: as above; conditions: 72 h
[5] = test system: NK-92 (IL-2 2.5 ng/mL); test: as above; conditions: 72 h
[6] = test system: normal primary NK cells, pool 1 (3 donors) (IL-2 2.5 ng/mL); test: as above; conditions: 72 h
[7] = test system: NKL (IL-2 2.5 ng/mL); test: as above; conditions: 72 h
[8] = test system: normal primary NK cells, pool 1 (3 donors), resting (IL-2 0 ng/mL); test: as above; conditions: 72 h
[9] = test system: KAI3 (IL-2 2.5 ng/mL); test: as above; conditions: 72 h
[10] = test system: NK-YS (IL-2 2.5 ng/mL); test: as above; conditions: 72 h
[11] = test system: DERL-7 (IL-2 2.5 ng/mL); test: as above; conditions: 72 h
[12] = test system: normal primary NK cells, pool 2 (3 donors) (IL-2 2.5 ng/mL); test: as above; conditions: 72 h
[13] = test system: YT (IL-2 2.5 ng/mL); test: as above; conditions: 72 h
[14] = test system: normal NK cells expanded with K562-aAPC; test: as above; conditions: 72 h, IL-2 2.5 ng/mL
Protocol: (§1)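 Drug sensitivity and resistance testing on K562-aAPC-expanded normal NK cells: 5 concentrations (10-fold steps over a 10,000-fold range), 72 h at 37 °C, viability by CellTiter-Glo normalised to DMSO and benzethonium chloride controls; DSS from the fitted curve.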

[15] = test system: normal NK cells expanded with K562-aAPC; test: drug sensitivity score (DSS) (DSS units); higher = more sensitive; extreme values may be limits of the assay; conditions: 72 h; IL-2 2.5 ng/mL
Protocol: as §1

[16] = test system: SNK-6 (IL-2 2.5 ng/mL); test: as above; conditions: 72 h
[17] = test system: KHYG-1 (IL-2 2.5 ng/mL); test: as above; conditions: 72 h
[18] = test system: normal primary NK cells, pool 3 (3 donors) (IL-2 2.5 ng/mL); test: as above; conditions: 72 h
[19] = test system: IMC-1 (IL-2 20 ng/mL); test: as above; conditions: 72 h
[20] = test system: NK-92 (IL-2 2.5 ng/mL); test: as above; conditions: 72 h
[21] = test system: normal primary NK cells, pool 1 (3 donors) (IL-2 2.5 ng/mL); test: as above; conditions: 72 h
[22] = test system: NKL (IL-2 2.5 ng/mL); test: as above; conditions: 72 h
[23] = test system: normal primary NK cells, pool 1 (3 donors), resting (IL-2 0 ng/mL); test: as above; conditions: 72 h
[24] = test system: KAI3 (IL-2 2.5 ng/mL); test: as above; conditions: 72 h
[25] = test system: NK-YS (IL-2 2.5 ng/mL); test: as above; conditions: 72 h
[26] = test system: DERL-7 (IL-2 2.5 ng/mL); test: as above; conditions: 72 h
[27] = test system: normal primary NK cells, pool 2 (3 donors) (IL-2 2.5 ng/mL); test: as above; conditions: 72 h
[28] = test system: YT (IL-2 2.5 ng/mL); test: as above; conditions: 72 h

CCS(=O)(=O)c1cccc(-c2cc(C(=O)NC3CCN(C)CC3)c(C)c3[nH]c4ncc(C)cc4c23)c1 [TAK-901] (max concentration tested 1000 nM)
percent inhibition of viability [%]
Conditions | 0.1 nM | 1 nM | 10 nM | 100 nM | 1000 nM
[1] | 6.55 | 11.7 | 6.25 | 25.7 | 70.1
[2] | -0.42 | -4.46 | -1.82 | 9.29 | 69
[3] | 1.04 | -10.9 | -10.6 | -10.1 | 8.18
[4] | -1.14 | 1.82 | -2.81 | 39.8 | 96.9
[5] | -8.6 | -16.9 | -4.19 | -5.4 | 6
[6] | -7.61 | -7.94 | 3.96 | 1 | 52
[7] | -9.65 | -9.74 | -13.2 | 31.8 | 67.5
[8] | -2.04 | -13.9 | 9.75 | -5.23 | 39.3
[9] | 1.13 | 2.62 | 9.88 | 32.9 | 77.5
[10] | -2.75 | -0.83 | 5.54 | 65.6 | 70.5
[11] | -2.6 | 5.56 | -0.1 | 67.8 | 79.7
[12] | -4.84 | -2.84 | -10.5 | -3.4 | 24.9
[13] | 0.92 | -0.2 | 0.62 | 11.9 | 28.7
[14] | -4.46 | -2.36 | -2.68 | 2.78 | 47.6

Conditions | drug sensitivity score
[15] | 2.88
[16] | 6.86
[17] | 5.36
[18] | 0
[19] | 10.6
[20] | 0
[21] | 2.88
[22] | 7.8
[23] | 1.6
[24] | 8.03
[25] | 12.9
[26] | 12.5
[27] | 0.75
[28] | 2.64
